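Assay format: 96-well plates, 48-hour exposure. Abbreviation: GI50, concentration required for 50% inhibition of growth. The concentration for full growth arrest is given as TGI.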
Experiments:
Assay in all cases: NCI-60 cell line screen, 48 h
HCT-15 colon = test system: HCT-15 colon
SF-539 CNS = test system: SF-539 CNS
SF-295 CNS = test system: SF-295 CNS
SW-620 colon = test system: SW-620 colon
CCRF-CEM leukemia = test system: CCRF-CEM leukemia
MDA-MB-435 = test system: MDA-MB-435
OVCAR-8 ovarian = test system: OVCAR-8 ovarian
LOX IMVI melanoma = test system: LOX IMVI melanoma
SK-OV-3 ovarian = test system: SK-OV-3 ovarian
NCI/ADR-RES ovarian = test system: NCI/ADR-RES ovarian
NCI-H522 lung = test system: NCI-H522 lung
786-0 renal = test system: 786-0 renal
SK-MEL-2 melanoma = test system: SK-MEL-2 melanoma
SK-MEL-5 melanoma = test system: SK-MEL-5 melanoma
SNB-75 CNS = test system: SNB-75 CNS
NCI-H226 lung = test system: NCI-H226 lung
RPMI-8226 leukemia = test system: RPMI-8226 leukemia
OVCAR-4 ovarian = test system: OVCAR-4 ovarian
KM12 colon = test system: KM12 colon
MOLT-4 leukemia = test system: MOLT-4 leukemia
NCI-H23 lung = test system: NCI-H23 lung
MALME-3M melanoma = test system: MALME-3M melanoma
UACC-257 melanoma = test system: UACC-257 melanoma
COLO 205 colon = test system: COLO 205 colon
UACC-62 melanoma = test system: UACC-62 melanoma
U251 CNS = test system: U251 CNS
OVCAR-5 ovarian = test system: OVCAR-5 ovarian
NCI-H460 lung = test system: NCI-H460 lung
UO-31 renal = test system: UO-31 renal
TK-10 renal = test system: TK-10 renal
ACHN renal = test system: ACHN renal
A549 NSCLC = test system: A549 NSCLC
OVCAR-3 ovarian = test system: OVCAR-3 ovarian
HS 578T breast = test system: HS 578T breast
SR leukemia = test system: SR leukemia
K-562 leukemia = test system: K-562 leukemia
HCC-2998 colon = test system: HCC-2998 colon
HL-60(TB) leukemia = test system: HL-60(TB) leukemia
PC-3 prostate = test system: PC-3 prostate
MCF7 breast = test system: MCF7 breast
T-47D breast = test system: T-47D breast
M14 melanoma = test system: M14 melanoma
HOP-62 NSCLC = test system: HOP-62 NSCLC
IGROV1 ovarian = test system: IGROV1 ovarian
RXF 393 renal = test system: RXF 393 renal
HCT-116 colon = test system: HCT-116 colon
SF-268 CNS = test system: SF-268 CNS
CAKI-1 renal = test system: CAKI-1 renal
DU-145 prostate = test system: DU-145 prostate
SNB-19 CNS = test system: SNB-19 CNS
HT29 colon = test system: HT29 colon
SN12C renal = test system: SN12C renal
HOP-92 NSCLC = test system: HOP-92 NSCLC
MDA-MB-231 breast = test system: MDA-MB-231 breast
A498 renal = test system: A498 renal
SK-MEL-28 melanoma = test system: SK-MEL-28 melanoma
BT-549 breast = test system: BT-549 breast

Which GI50 (HCT-15 colon) does the source give for `CCN(Cc1cc(F)ccc1F)c1ccc(CO)c(Cl)c1` here?
The GI50 was 12.8 µM.

And the TGI (HCT-15 colon)?
Its TGI is 32.3 µM.

What about the GI50 (SF-539 CNS) of the same compound?
Its GI50 is 15.2 µM.

And the TGI (SF-539 CNS)?
The TGI was 30.4 µM.

And the GI50 (SF-295 CNS)?
Its GI50 is 0.283 µM.

And the TGI (SF-295 CNS)?
Its TGI is 13.2 µM.

What about the GI50 (SW-620 colon) of the same compound?
The GI50 was 0.554 µM.

What about the TGI (SW-620 colon) of the same compound?
The TGI was 20.5 µM.

What about the GI50 (CCRF-CEM leukemia) of the same compound?
Its GI50 is 22.5 µM.

What about the TGI (CCRF-CEM leukemia) of the same compound?
Its TGI is 91.5 µM.

What about the GI50 (MDA-MB-435) of the same compound?
Its GI50 is 12.8 µM.

And the TGI (MDA-MB-435)?
Its TGI is 30 µM.

What about the GI50 (OVCAR-8 ovarian) of the same compound?
Its GI50 is 13 µM.

What about the TGI (OVCAR-8 ovarian) of the same compound?
The TGI was 36.2 µM.

What about the GI50 (LOX IMVI melanoma) of the same compound?
Its GI50 is 14.6 µM.

What about the TGI (LOX IMVI melanoma) of the same compound?
Its TGI is 29.2 µM.

What about the GI50 (SK-OV-3 ovarian) of the same compound?
Its GI50 is 8.94 µM.

What about the TGI (SK-OV-3 ovarian) of the same compound?
Its TGI is 29.1 µM.

And the GI50 (NCI/ADR-RES ovarian)?
The GI50 was 13.6 µM.

And the TGI (NCI/ADR-RES ovarian)?
The TGI was 39.9 µM.

What about the GI50 (NCI-H522 lung) of the same compound?
The GI50 was 12.2 µM.

What about the TGI (NCI-H522 lung) of the same compound?
The TGI was 29 µM.

And the GI50 (786-0 renal)?
Its GI50 is 11.8 µM.

And the TGI (786-0 renal)?
Its TGI is 26.9 µM.

And the GI50 (SK-MEL-2 melanoma)?
The GI50 was 2.72 µM.

What about the TGI (SK-MEL-2 melanoma) of the same compound?
Its TGI is 19.5 µM.

And the GI50 (SK-MEL-5 melanoma)?
Its GI50 is 10.8 µM.

What about the TGI (SK-MEL-5 melanoma) of the same compound?
The TGI was 22.9 µM.

What about the GI50 (SNB-75 CNS) of the same compound?
The GI50 was 10.4 µM.

What about the TGI (SNB-75 CNS) of the same compound?
Its TGI is 35.6 µM.

And the GI50 (NCI-H226 lung)?
Its GI50 is 0.0484 µM.

And the TGI (NCI-H226 lung)?
The TGI was 0.178 µM.

And the GI50 (RPMI-8226 leukemia)?
The GI50 was 2.24 µM.

And the TGI (RPMI-8226 leukemia)?
Its TGI is 30.3 µM.

And the GI50 (OVCAR-4 ovarian)?
The GI50 was 0.129 µM.

What about the TGI (OVCAR-4 ovarian) of the same compound?
The TGI was 1.15 µM.

What about the GI50 (KM12 colon) of the same compound?
The GI50 was 14.5 µM.

And the TGI (KM12 colon)?
The TGI was 30.8 µM.

And the GI50 (MOLT-4 leukemia)?
Its GI50 is 18.1 µM.

And the TGI (MOLT-4 leukemia)?
The TGI was 53.8 µM.

And the GI50 (NCI-H23 lung)?
The GI50 was 11.4 µM.

And the TGI (NCI-H23 lung)?
Its TGI is 33.1 µM.

And the GI50 (MALME-3M melanoma)?
Its GI50 is 13.3 µM.

And the TGI (MALME-3M melanoma)?
Its TGI is 27.2 µM.

And the GI50 (UACC-257 melanoma)?
Its GI50 is 0.0904 µM.

What about the TGI (UACC-257 melanoma) of the same compound?
The TGI was 0.308 µM.

What about the GI50 (COLO 205 colon) of the same compound?
The GI50 was 2.17 µM.

And the TGI (COLO 205 colon)?
The TGI was 6.72 µM.

And the GI50 (UACC-62 melanoma)?
Its GI50 is 0.0877 µM.

What about the TGI (UACC-62 melanoma) of the same compound?
Its TGI is 0.602 µM.

What about the GI50 (U251 CNS) of the same compound?
The GI50 was 0.788 µM.

And the TGI (U251 CNS)?
The TGI was 17.1 µM.

And the GI50 (OVCAR-5 ovarian)?
Its GI50 is 0.0502 µM.

What about the TGI (OVCAR-5 ovarian) of the same compound?
Its TGI is 0.228 µM.

And the GI50 (NCI-H460 lung)?
Its GI50 is 0.177 µM.

What about the TGI (NCI-H460 lung) of the same compound?
The TGI was 10.8 µM.

And the GI50 (UO-31 renal)?
The GI50 was 2.02 µM.

And the TGI (UO-31 renal)?
The TGI was 23.4 µM.

And the GI50 (TK-10 renal)?
Its GI50 is 0.0332 µM.

And the TGI (TK-10 renal)?
The TGI was 0.199 µM.

And the GI50 (ACHN renal)?
The GI50 was 14.3 µM.

What about the TGI (ACHN renal) of the same compound?
The TGI was 29.6 µM.

And the GI50 (A549 NSCLC)?
Its GI50 is 1.54 µM.

And the TGI (A549 NSCLC)?
Its TGI is 21.6 µM.

And the GI50 (OVCAR-3 ovarian)?
The GI50 was 0.238 µM.

What about the TGI (OVCAR-3 ovarian) of the same compound?
Its TGI is 0.861 µM.

What about the GI50 (HS 578T breast) of the same compound?
The GI50 was 16.2 µM.

And the TGI (HS 578T breast)?
Its TGI is 47.4 µM.

And the GI50 (SR leukemia)?
Its GI50 is 16.1 µM.

And the TGI (SR leukemia)?
The TGI was 44.3 µM.

And the GI50 (K-562 leukemia)?
Its GI50 is 0.617 µM.

What about the TGI (K-562 leukemia) of the same compound?
Its TGI is 20.9 µM.

And the GI50 (HCC-2998 colon)?
The GI50 was 6.37 µM.

And the TGI (HCC-2998 colon)?
The TGI was 21.7 µM.

What about the GI50 (HL-60(TB) leukemia) of the same compound?
The GI50 was 5.62 µM.

And the TGI (HL-60(TB) leukemia)?
Its TGI is 34.7 µM.

What about the GI50 (PC-3 prostate) of the same compound?
The GI50 was 13.4 µM.

What about the TGI (PC-3 prostate) of the same compound?
Its TGI is 32.4 µM.

And the GI50 (MCF7 breast)?
Its GI50 is 0.181 µM.

And the TGI (MCF7 breast)?
The TGI was 12.7 µM.

And the GI50 (T-47D breast)?
Its GI50 is 0.116 µM.

What about the TGI (T-47D breast) of the same compound?
The TGI was 1.9 µM.

And the GI50 (M14 melanoma)?
The GI50 was 15.5 µM.

And the TGI (M14 melanoma)?
The TGI was 32.5 µM.

And the GI50 (HOP-62 NSCLC)?
Its GI50 is 1.35 µM.

And the TGI (HOP-62 NSCLC)?
Its TGI is 20.5 µM.

What about the GI50 (IGROV1 ovarian) of the same compound?
Its GI50 is 0.0527 µM.

What about the TGI (IGROV1 ovarian) of the same compound?
The TGI was 0.279 µM.

And the GI50 (RXF 393 renal)?
Its GI50 is 4.16 µM.

And the TGI (RXF 393 renal)?
The TGI was 17.3 µM.

What about the GI50 (HCT-116 colon) of the same compound?
Its GI50 is 0.0553 µM.

What about the TGI (HCT-116 colon) of the same compound?
Its TGI is 11.7 µM.

And the GI50 (SF-268 CNS)?
Its GI50 is 17.3 µM.

What about the TGI (SF-268 CNS) of the same compound?
The TGI was 40.6 µM.

What about the GI50 (CAKI-1 renal) of the same compound?
Its GI50 is 0.416 µM.

And the TGI (CAKI-1 renal)?
Its TGI is 5.1 µM.

And the GI50 (DU-145 prostate)?
The GI50 was 15.5 µM.

What about the TGI (DU-145 prostate) of the same compound?
Its TGI is 36.7 µM.

And the GI50 (SNB-19 CNS)?
Its GI50 is 20.2 µM.

What about the TGI (SNB-19 CNS) of the same compound?
The TGI was 80.3 µM.

What about the GI50 (HT29 colon) of the same compound?
The GI50 was 4.1 µM.

What about the TGI (HT29 colon) of the same compound?
The TGI was 17.7 µM.

And the GI50 (SN12C renal)?
The GI50 was 11.8 µM.

What about the TGI (SN12C renal) of the same compound?
The TGI was 25.6 µM.

And the GI50 (HOP-92 NSCLC)?
The GI50 was 0.292 µM.

What about the TGI (HOP-92 NSCLC) of the same compound?
The TGI was 6.21 µM.

What about the GI50 (MDA-MB-231 breast) of the same compound?
The GI50 was 13.6 µM.

And the TGI (MDA-MB-231 breast)?
Its TGI is 29.1 µM.

What about the GI50 (A498 renal) of the same compound?
Its GI50 is 0.0298 µM.

What about the TGI (A498 renal) of the same compound?
Its TGI is 0.145 µM.

What about the GI50 (SK-MEL-28 melanoma) of the same compound?
The GI50 was 13.8 µM.

And the TGI (SK-MEL-28 melanoma)?
The TGI was 27.5 µM.

What about the GI50 (BT-549 breast) of the same compound?
The GI50 was 15.4 µM.

What about the TGI (BT-549 breast) of the same compound?
The TGI was 30.8 µM.

— PubChem BioAssay (NCI)
